Data on 25 molecules can be found in US7893077B2, “Bisaryl-sulfonamides” (Amgen Inc., priority 2004, dated 2011).

This assay has as its target T1, PPARγ (Homo sapiens, UniProt P37231).
T1 construct: made in house
T1 sequence (P37231 1-505): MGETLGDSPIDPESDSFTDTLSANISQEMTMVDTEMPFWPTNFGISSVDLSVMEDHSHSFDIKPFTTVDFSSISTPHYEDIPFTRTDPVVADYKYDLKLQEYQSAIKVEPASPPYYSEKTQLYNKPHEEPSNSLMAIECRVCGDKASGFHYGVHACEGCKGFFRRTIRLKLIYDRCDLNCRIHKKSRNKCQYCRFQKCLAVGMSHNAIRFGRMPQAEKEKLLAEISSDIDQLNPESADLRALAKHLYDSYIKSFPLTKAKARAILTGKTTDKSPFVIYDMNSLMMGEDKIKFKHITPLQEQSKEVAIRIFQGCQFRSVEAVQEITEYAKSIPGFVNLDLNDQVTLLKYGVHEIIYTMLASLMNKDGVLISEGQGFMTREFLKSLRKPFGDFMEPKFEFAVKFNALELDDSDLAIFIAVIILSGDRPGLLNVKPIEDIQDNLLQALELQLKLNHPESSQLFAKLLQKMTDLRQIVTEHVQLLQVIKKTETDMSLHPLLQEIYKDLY
In words: PPARγ ligand binding assay utilizing [3H]-BRL 49653 as the radioligand (filtration). The note with it: concentration required to reduce by 50% the specific binding of [3H]-BRL 49653. The text has this: The compounds of the present invention can be evaluated for modulation of the PPARγ receptor using assays such as those described in Jiang, et al., Nature 391:82-86 (1998), Ricote, et al., Nature 391:79-82 (1998) and Lehmann, et al., J. Biol. Chem. 270(12): 12953-12956 (1995). Alternatively, the compounds can be evaluated for their ability to displace radiolabeled BRL 49653 from a PPARγ-GST fusion protein as follows:
PPARγ-GST fusion protein (prepared according to standard procedures), [^3H]-BRL 49653 having 50 Ci/mmol specific activity, Polyfiltronics Unifilter 350 filtration plate and glutathione-Sepharose® beads (from Pharmacia: washed twice with 10× binding buffer in which BSA and DTI can be left out).
Binding buffer (10 mM Tris-HCl, pH 8.0, 50 mM KCl, 10 mM DTT, 0.02% BSA and 0.0 1% NP-40) is added in 80-μL amounts to the wells of the filtration plate. The test compound is then added in 10 μL of DMSO. The PPARγ-GST fusion protein and radiolabeled BRL compound are premixed in binding buffer containing 10 mM DTT and added in 10-μL amounts to the wells of the plate to provide final concentrations of 1 µg/well of PPARγ-GST fusion protein and 10 nM [^3H]-BRL 49653 compound. The plate is incubated for 15 min. Glutathione-agarose bead is added in 50 μL of binding buffer, and the plate is vigorously shaken for one hour. The plate is washed four times with 200 μL/well of binding buffer (without BSA and DTT). The bottom of the plate is sealed and 200 μL/well of scintillation cocktail is added. The top of the plate is then sealed and the radioactivity is determined.
IC50 values are defined as the concentration of test compounds required to reduce by 50% the specific binding of [^3H]-BRL 49653 and are represented by (+)<30 μM; (++)<10 μM; (+++)<1 μM.

For orientation: IC50 means the concentration at which inhibition is half-maximal.

For the molecule `CCCCCc1nc(NS(=O)(=O)c2ccc(Cl)cc2Cl)ncc1Sc1ccc(S(=O)(=O)N2CCCCC2)cc1` [Compound 47, 2,4-Dichloro-N-{4-pentyl-5-[4-(piperidine-1-sulfonyl) -phenylsulfanyl]-pyrimidin-2-yl}-benzenesulfonamide], the IC50 is less than 1 µM.

As to `CCCCCc1nc(NS(=O)(=O)c2ccc(Cl)cc2)ncc1Sc1ccc(S(=O)(=O)N2CCCCC2)cc1` [Compound 48, 4-Chloro-N-{4-pentyl-5-[4-(piperidine-1-sulfonyl) -phenylsulfanyl]-pyrimidin-2-yl}-benzenesulfonamide], the IC50 is less than 1 µM.

The molecule `Cc1nc(NS(=O)(=O)c2ccc(Cl)cc2Cl)ncc1Sc1ccc(S(=O)(=O)N2CCCCC2)cc1` [Compound 49, 2,4-Dichloro-N-{4-methyl-5-[4-(piperidine-1-sulfonyl) -phenylsulfanyl]-pyrimidin-2-yl}-benzenesulfonamide] returned an IC50 of less than 10 µM.

Regarding `Cc1nc(NS(=O)(=O)c2ccc(C(F)(F)F)cc2Cl)ncc1Sc1ccc(S(=O)(=O)N2CCCCC2)cc1` [Compound 50, 2-Chloro-N-{4-methyl-5-[4-(piperidine-1-sulfonyl) -phenylsulfanyl]-pyrimidin-2-yl}-4-trifluoromethyl-benzenesulfonamide], the IC50 was less than 10 µM.

In turn, `Cc1nc(NS(=O)(=O)c2ccc(Cl)cc2)ncc1Sc1ccc(S(=O)(=O)N2CCCCC2)cc1` [Compound 51, 4-Chloro-N-{4-methyl-5-[4-(piperidine-1-sulfonyl) -phenylsulfanyl]-pyrimidin-2-yl}-benzenesulfonamide] had an IC50 of less than 10 µM.

`Cc1nc(NS(=O)(=O)c2ccc(Cl)cc2Cl)ncc1Sc1ccc(S(=O)(=O)N2CCOCC2)cc1` [Compound 52, 2,4-Dichloro-N-{4-methyl-5-[4-(morpholine-4-sulfonyl) -phenylsulfanyl]-pyrimidin-2-yl}-benzenesulfonamide] had an IC50 of less than 10 µM.

The molecule `Cc1nc(NS(=O)(=O)c2ccc(C(F)(F)F)cc2Cl)ncc1Sc1ccc(S(=O)(=O)N2CCOCC2)cc1` [Compound 53, 2-Chloro-N-{4-methyl-5-[4-(morpholine-4-sulfonyl) -phenylsulfanyl]-pyrimidin-2-yl}-4-trifluoromethyl-benzenesulfonamide] displayed an IC50 of less than 10 µM.

For `Cc1nc(NS(=O)(=O)c2ccc(Cl)cc2Cl)ncc1Oc1ccc(S(=O)(=O)N2CCOCC2)cc1` [Compound 54, 2,4-Dichloro-N-{4-methyl-5-[4-(morpholine-4-sulfonyl) -phenoxy]-pyrimidin-2-yl}-benzenesulfonamide], the IC50 was less than 30 µM.

With `Cc1nc(NS(=O)(=O)c2ccc(C(F)(F)F)cc2Cl)ncc1Oc1ccc(S(=O)(=O)N2CCOCC2)cc1` [Compound 55, 2-Chloro-N-{4-methyl-5-[4-(morpholine-4-sulfonyl) -phenoxy]-pyrimidin-2-yl}-4-trifluoromethyl-benzenesulfonamide], the IC50 was less than 10 µM.

The molecule `Cc1nc(NS(=O)(=O)c2ccc(Cl)cc2)ncc1Oc1ccc(S(=O)(=O)N2CCOCC2)cc1` [Compound 56, 4-Chloro-N-{4-methyl-5-[4-(morpholine-4-sulfonyl) -phenoxy]-pyrimidin-2-yl}-benzenesulfonamide] registered an IC50 of less than 30 µM.

With `Cc1nc(NS(=O)(=O)c2ccc(Cl)cc2Cl)ncc1Sc1ccc2ccccc2c1` [Compound 57, 2,4-Dichloro-N-[4-methyl-5-(naphthalen-2-ylsulfanyl)-pyrimidin-2-yl]-benzenesulfonamide], the IC50 is less than 10 µM.

On to `Cc1nc(NS(=O)(=O)c2ccc(C(F)(F)F)cc2Cl)ncc1Sc1ccc2ccccc2c1` [Compound 59, 2-Chloro-N-[4-methyl-5-(naphthalen-2-ylsulfanyl)-pyrimidin-2-yl]-4-trifluoromethyl-benzenesulfonamide], for which the IC50 is less than 10 µM.

Molecule `Cc1nc(NS(=O)(=O)c2ccc(Cl)cc2Cl)ncc1Oc1ccc(Cl)c(Cl)c1` [Compound 60, 2,4-Dichloro-N-[5-(3,4-dichloro-phenoxy)-4-methyl-pyrimidin-2-yl]-benzenesulfonamide] showed an IC50 of less than 10 µM.

Molecule `Cc1cc(S(=O)(=O)Nc2ccc(Sc3ccc(S(=O)(=O)N4CCCCC4)cc3)c(C)n2)c(Cl)cc1Cl` [Compound 61, 2,4-Dichloro-5-methyl-N-{6-methyl-5-[4-(piperidine-1-sulfonyl)-phenylsulfanyl]-pyridin-2-yl}-benzenesulfonamide] showed an IC50 of less than 1 µM.

Molecule `Cc1cc(S(=O)(=O)Nc2cc(C)c(Sc3ccc(S(=O)(=O)N4CCCCC4)cc3)cn2)c(Cl)cc1Cl` [Compound 62, 2,4-Dichloro-5-methyl-N-{4-methyl-5-[4-(piperidine-1-sulfonyl)-phenylsulfanyl]-pyridin-2-yl}-benzenesulfonamide] registered an IC50 of less than 1 µM.

Consider `Cc1cc(NS(=O)(=O)c2ccc(Cl)cc2Cl)ncc1Sc1ccc(S(=O)(=O)N2CCCCC2)cc1` [Compound 63, 2,4-Dichloro-N-{4-methyl-5-[4-(piperidine-1-sulfonyl) -phenylsulfanyl]-pyridin-2-yl}-benzenesulfonamide], for which the IC50 was less than 1 µM.

With `Cc1cc(NS(=O)(=O)c2ccc(C(F)(F)F)cc2Cl)ncc1Sc1ccc(S(=O)(=O)N2CCCCC2)cc1` [Compound 64, 2-Chloro-N-{4-methyl-5-[4-(piperidine-1-sulfonyl) -phenylsulfanyl]-pyridin-2-yl}-4-trifluoromethyl-benzenesulfonamide], the IC50 is less than 1 µM.

Molecule `Cc1nc(NS(=O)(=O)c2ccc(Cl)cc2Cl)ccc1Sc1ccc(S(=O)(=O)N2CCCCC2)cc1` [Compound 65, 2,4-Dichloro-N-{6-methyl-5-[4-(piperidine-1-sulfonyl) -phenylsulfanyl]-pyridin-2-yl}-benzenesulfonamide] gave an IC50 of less than 1 µM.

For the molecule `Cc1nc(NS(=O)(=O)c2ccc(C(F)(F)F)cc2Cl)ccc1Sc1ccc(S(=O)(=O)N2CCCCC2)cc1` [Compound 66, 2-Chloro-N-{6-methyl-5-[4-(piperidine-1-sulfonyl) -phenylsulfanyl]-pyridin-2-yl}-4-trifluoromethyl-benzenesulfonamide], the IC50 is less than 1 µM.

On to `Cc1cc(S(=O)(=O)Nc2ccc(Sc3ccc(S(=O)(=O)N4CCCCC4)cc3)cn2)c(Cl)cc1Cl` [Compound 67, 2,4-Dichloro-5-methyl-N-{5-[4-(piperidine-1-sulfonyl) -phenylsulfanyl]-pyridin-2-yl}-benzenesulfonamide], for which the IC50 is less than 1 µM.

Consider `O=S(=O)(Nc1ccc(Sc2ccc(S(=O)(=O)N3CCCCC3)cc2)cn1)c1ccc(Cl)cc1Cl` [Compound 68, 2,4-Dichloro-N-{5-[4-(piperidine-1-sulfonyl)-phenylsulfanyl]-pyridin-2-yl}-benzenesulfonamide], for which the IC50 was less than 1 µM.

As for `O=S(=O)(Nc1ccc(Sc2ccc(S(=O)(=O)N3CCCCC3)cc2)cn1)c1ccc(C(F)(F)F)cc1Cl` [Compound 69, 2-Chloro-N-{5-[4-(piperidine-1-sulfonyl)-phenylsulfanyl]-pyridin-2-yl}-4-trifluoromethyl-benzenesulfonamide], the IC50 is less than 1 µM.

`COC(=O)c1nc(NS(=O)(=O)c2ccc(Cl)cc2Cl)ccc1Sc1ccc(S(=O)(=O)N2CCCCC2)cc1` [Compound 70, 6-(2,4-Dichloro-benzenesulfonylamino)-3-[4-(piperidine-1-sulfonyl)-phenylsulfanyl]-pyridine-2-carboxylic acid methyl ester] registered an IC50 of less than 1 µM.

With `O=C(O)c1nc(NS(=O)(=O)c2ccc(Cl)cc2Cl)ccc1Sc1ccc(S(=O)(=O)N2CCCCC2)cc1` [Compound 71, 6-(2,4-Dichloro-benzenesulfonylamino)-3-[4-(piperidine-1-sulfonyl)-phenylsulfanyl]-pyridine-2-carboxylic acid], the IC50 is less than 10 µM.

`CON(C)C(=O)c1nc(NS(=O)(=O)c2ccc(Cl)cc2Cl)ccc1Sc1ccc(S(=O)(=O)N2CCCCC2)cc1` [Compound 72, 6-(2,4-Dichloro-benzenesulfonylamino)-3-[4-(piperidine-1-sulfonyl)-phenylsulfanyl]-pyridine-2-carboxylic acid methoxy-methyl-amide] gave an IC50 of less than 1 µM.
